This passage reports IC50 results from BindingDB's records for doi:10.1021/acs.jmedchem.0c00435 (University of Bonn, 2020).

Experiment [1] is described as follows: Antagonist activity P2X1 receptor in Apyrase pre-treated human platelets assessed as inhibition of collagen-induced platelet aggregation pre-incubated for 30 mins before collagen stimulation by aggregometry.
Experiment [2] in a line: Antagonist activity P2X1 receptor in Apyrase pre-treated human platelets assessed as inhibition of TRAP6-induced platelet aggregation pre-incubated for 30 mins before TRAP6 stimulation by aggregometry.
The nature of experiment [3]: Antagonist activity P2X1 receptor in human platelets assessed as inhibition of ADP-induced platelet aggregation pre-incubated for 30 mins before ADP stimulation by aggregometry.

The IC50 is the midpoint of a concentration-inhibition curve.

Turning to `O=C(Nc1cc(C(F)(F)F)cc(C(F)(F)F)c1)c1cc(Cl)ccc1O` [TCMDC-125465], the results for the IC50 in experiment [1], in experiment [2] and in experiment [3] were 0.57 µM, 3.64 µM and 4.73 µM, respectively.

As to `O=C(Nc1cc(Cl)cc(Cl)c1)c1cc(Cl)ccc1O`, the IC50 in experiment [1] is 3.03 µM; in experiment [2] it was over 10 µM; in experiment [3] it was over 20 µM.

For `O=C(Nc1cc(C(F)(F)F)cc(C(F)(F)F)c1)c1ccc(Cl)cc1O`, the figures for the 50% inhibitory concentration (IC50) in experiment [1], in experiment [2] and in experiment [3] were 1.14 µM, 4.8 µM and 5.47 µM, respectively.

Turning to `O=S(=O)(Nc1cc(C(F)(F)F)cc(C(F)(F)F)c1)c1cc(Cl)ccc1O`, the results for the IC50 in experiment [1], in experiment [2] and in experiment [3] were 3.13 µM, over 10 µM and over 20 µM, respectively.

Take `O=C(Nc1cc(C(F)(F)F)cc(C(F)(F)F)c1)c1ccccc1` [N-(3,5-Bis(Trifluoromethyl)Phenyl)Benzamide]: the concentration for half-maximal inhibition (IC50) in experiment [1] was determined as 2.1 µM; in experiment [2] it was 5.57 µM.

For `O=C(Nc1cc(F)cc(F)c1)c1cc(Cl)ccc1O`, the concentration for half-maximal inhibition (IC50) was over 10 µM in experiment [2] and over 20 µM in experiment [3].
